According to patent US20210363110A1, “4-METHYLDIHYDROPYRIMIDINONE COMPOUNDS AND PHARMACEUTICAL USE THEREOF” (Japan Tobacco Inc., priority 2018, published 2021):

Experiments:
Type in all cases: in vitro ADME
[1] = Metabolic stability in liver microsomes, human; details: residual ratio of unreacted substance, 0.2 mg/mL microsomes, NADPH generating system
Procedure: (§1) A test solution was prepared by diluting 10 mM DMSO solution of a test substance with acetonitrile by 100 times.
(§2) Human and animal liver microsomes (SEKISUI XENOTECH; Human (H2610), Rat (R1000), Mouse (M1000), Monkey (P2000), Dog (D1000)) were adjusted with potassium phosphate buffer (pH 7.4) to 0.2 mg/mL in the reaction system. Then, 1% of the solution of a test substance prepared was added to the reaction system. Thereto was added an NADPH generating system (prepared according to the method of Non Patent Literature 28), and the metabolic reaction was initiated. At a designated time, 0.1% formic acid-acetonitrile/water (3:1) was added thereto, and the reaction was terminated.
(§3) The sample after termination of the reaction was separated by centrifugation (1400 g, 20 min.), and then the supernatant was measured by LC/MS (UPLC-SQD (waters)) to calculate a residual ratio of unreacted substances.

[2] = Metabolic stability in liver microsomes, mouse; details: residual ratio of unreacted substance, 0.2 mg/mL microsomes, NADPH generating system
Procedure: as §1, §2, §3

[3] = Metabolic stability in liver microsomes, monkey; details: residual ratio of unreacted substance, 0.2 mg/mL microsomes, NADPH generating system
Procedure: as §1, §2, §3

[4] = Metabolic stability in hepatocytes, human; details: residual ratio of unreacted substance, 1×10^6 cells/mL
Procedure: (§4) A test solution was prepared by diluting 10 mM DMSO solution of a test substance with acetonitrile by 20 times.
(§5) Human and animal cryopreserved hepatocyte (BIOIVT; Human (IVT-X008000), Rat (IVT-M00005), Monkey (IVT-M00305), Dog (IVT-M00205)) were adjusted with William's Medium E (SIGMA; W1878) to 1×10^6 cells/mL of a cell suspension, which was then added to a 96-well plate. Then, 1% of the solution of a test substance prepared was added to the reaction system, and the metabolic reaction was initiated. At a designated time, 0.1% formic acid-acetonitrile was added thereto, and the reaction was terminated.
as §3

[5] = Metabolic stability in hepatocytes, rat; details: residual ratio of unreacted substance, 1×10^6 cells/mL
Procedure: as §4, §5, §3

[6] = Metabolic stability in hepatocytes, monkey; details: residual ratio of unreacted substance, 1×10^6 cells/mL
Procedure: as §4, §5, §3

CYP3A4 = experiment: Potential for induction of CYP3A4 (Nuclear Receptor Activation Kit, DPX2 cells, reporter activity); details: 48 hours, % of positive control (rifampicin); for Potential for induction of CYP3A4, 3 μM: 3 μM compound; for Potential for induction of CYP3A4, 10 μM: 10 μM compound
Procedure: Potential for induction of CYP3A4 was evaluated with Nuclear Receptor Activation Kits (PURACYP; DPX2-96-002) according to protocols attached.
The following experiment was performed with substances accompanying Nuclear Receptor Activation Kits (PURACYP; DPX2-96-002).
A measurement method is specifically shown as follows. DPX2 cells were seeded on a 96-well plate and incubated with a CO2 incubator for 24 hours. […] The media on 96-well plate were removed with an aspirator 24 hours after seeding, and thereto was added the compound-supplemented medium which was prepared. CellTiter-Fluor was added to the medium 48 hours after the addition of compound, and the mixture was incubated with a CO2 incubator for 1 hour. Then, a cell viability was measured by the fluorometric method. ONE-Glo was added to the mixture, and the mixture was incubated with a CO2 incubator for 5 minutes. Then, the reporter activity was measured by luminescent determination. The induction ratio was calculated by comparing the resulting reporter activity with a DMSO control sample. % of positive control was calculated from the following equation.

Metabolic stability in liver microsomes at 60 min., Human [1] [%]	Metabolic stability in liver microsomes at 60 min., Mouse [2] [%]	Metabolic stability in liver microsomes at 60 min., Monkey [3] [%]	Metabolic stability in hepatocytes at 240 min., Human [4] [%]	Metabolic stability in hepatocytes at 240 min., Rat [5] [%]	Metabolic stability in hepatocytes at 240 min., Monkey [6] [%]	Potential for induction of CYP3A4, 3 μM (CYP3A4) [%]	Potential for induction of CYP3A4, 10 μM (CYP3A4) [%]	Potential for induction of CYP3A4, 30 μM (CYP3A4; 30 μM compound) [%]	SMILES
99	95	93	94	90	83	<10	<10	<10	CC(C)C1=CN(C23CC(C(=O)O)(C2)C3)C(=O)N[C@@]1(C)c1ccc([C@@H]2C[C@H]2C(C)(C)C)c(Cl)c1 [Compound (1), 3-{(S)-4-[4-((1R,2R)-2-tert-Butyl-cyclopropyl)-3-chloro-phenyl]-5-isopropyl-4-methyl-2-oxo-3,4-dihydro-2H-pyrimidin-1-yl}bicyclo[1.1.1]pentane-1-carboxylic acid]
96	98	96	94	94	85	<10	<10	–	CC[C@H](C)C1=CN(C23CC(C(=O)O)(C2)C3)C(=O)N[C@@]1(C)c1ccc([C@@H]2C[C@H]2C(C)(C)C)c(Cl)c1 [Compound (2), 3-{(S)-5-((S)-sec-Butyl)-4-[4-((1R,2R)-2-tert-butyl-cyclopropyl)-3-chloro-phenyl]-4-methyl-2-oxo-3,4-dihydro-2H-pyrimidin-1-yl}bicyclo[1.1.1]pentane-1-carboxylic acid]
